The numbers were not newly measured in patent US10544066B2, “Microencapsulated nitrification inhibitor compositions” (DOW AGROSCIENCES LLC, priority 2014, dated 2020), which cites them from elsewhere.

For this data set the following is noted: at 23° Celsius.

Consider `Clc1cccc(C(Cl)(Cl)Cl)n1` [nitrapyrin, 2-chloro-6-(trichloromethyl)pyridine], for which the vapor pressure was 2.8×10^−3 mm Hg.
